Results taken from patent US11116767B2, “3,5-disubstituted pyrazoles useful as checkpoint kinase 1 (Chk1) inhibitors, and their preparations and applications” (PHARMAENGINE, INC., priority 2016, dated 2021).

What was measured:
HT-29 = assay: Cancer cell growth inhibition assay (CellTiter-Glo), HT-29; assay type: cell-based, Human; conditions: Homo sapiens, HT-29; 72 hours, cellular ATP content; read-out: HT-29 anti cell proliferation activity (grade)
Method: Human cancer cell lines were purchased from American Type Culture Collection (Manassas, Va.). The trypsinized cells were diluted to required volume at densities of 44,000 cells/ml. 90 ul cell slurry was dispensed per well in 96-well flat-bottomed plates with the recommended culture medium. The cells were incubated for 24 hours at 37° C. in 5% CO2 under humidified condition. The cells were then incubated with compounds at various concentrations for 72 hours in culture medium supplemented with 0.5% (v/v) FBS. Growth inhibition was assessed by assay of cellular ATP content using CellTiter-Glo reagent to each well. Luminesce was read on Envision. The inhibition rate (%)=(Max signal compound signal)/(Max signal Min signal)×100.

Chk2 = target: T1, Chk2 (Homo sapiens, UniProt O96017); assay: biochemical; conditions: ADP-Glo; read-out: Chk2 in vitro enzyme activity (grade)
T1 construct: purchased Carna 02-162
T1 sequence (O96017 whole entry): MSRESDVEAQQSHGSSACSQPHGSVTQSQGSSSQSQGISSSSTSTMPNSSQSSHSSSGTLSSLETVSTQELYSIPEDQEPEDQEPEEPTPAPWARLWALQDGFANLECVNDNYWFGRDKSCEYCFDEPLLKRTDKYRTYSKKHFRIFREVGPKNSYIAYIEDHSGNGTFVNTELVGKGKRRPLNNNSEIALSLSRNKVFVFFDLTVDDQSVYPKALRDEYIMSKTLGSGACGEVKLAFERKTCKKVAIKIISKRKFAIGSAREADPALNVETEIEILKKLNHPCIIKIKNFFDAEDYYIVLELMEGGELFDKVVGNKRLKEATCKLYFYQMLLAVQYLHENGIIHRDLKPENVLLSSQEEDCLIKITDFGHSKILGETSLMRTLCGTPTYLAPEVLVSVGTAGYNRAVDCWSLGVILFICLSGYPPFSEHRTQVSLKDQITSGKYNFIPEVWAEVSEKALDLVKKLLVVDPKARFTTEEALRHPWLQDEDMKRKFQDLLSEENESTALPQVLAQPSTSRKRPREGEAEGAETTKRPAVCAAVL

HT-29 tumor xenograft = assay: HT-29 xenograft model, alone or in combination with CPT-11; assay type: in vivo, Balb/c nude mice; conditions: for % T/C value: 40 mg/kg, IV
Method: Female Balb/c nude mice at 7-8 weeks of age (Body weights between 17-18g) were purchased from Hunan SJA Laboratory Animal Co., Ltd. HT-29 cells were cultured in DMEM culture medium containing 10% fetal bovine serum and LoVo cells were cultured in RPMI 1640 culture medium containing 10% fetal bovine serum. The cells were harvested and washed with serum free culture medium. Finally, the cells were suspended at a cell density of […] in serum free culture medium for implantation. 5 million cells per animal suspended in 0.1 ml serum free culture medium and 1.1 matrigel were injected into the right flank of the animals after a one, week acclimation period. When average tumor volume reached acceptable tumor size (100-200 mm^3) and shape, the animals were randomly assigned into treatment groups.
In HT-29 tumor xenograft model, the animals were treated with a single compound, a ChK1 inhibitor or CPT-11, or a combination with CPT11. […] The animals well tolerated each treatment in the HT-29 colon cancer in nude mice model.

[1] = system: ChK1 phosphorylation (pChK1 S296) in HT-29 colon cancer cells; assay: Western blot analysis of ChK1 phosphorylation in HT-29 cells with SN-38; assay type: cell-based, Human; conditions: HT-29 cells pre-incubated with SN-38 (50 nM) 24 hours, then ChK1 inhibitor 3 hours

COc1cc(F)cc(OCCCN)c1-c1cc(Nc2cnc(C#N)cn2)n[nH]1 [Compound 3, 5-(5-(2-(3-Aminopropoxy)-4-fluoro-6-methoxyphenyl)-1H-pyrazol-3-ylamino)pyrazine-2-carbonitrile] was tested, and the IC50 (HT-29) was 0.01 to 0.05 µM, the IC50 (Chk2) was 0.05 to 0.1 µM and the “efficacy compared with LY-2606368, alone or with CPT-11” value (HT-29 tumor xenograft; 40 mg/kg IV twice a week vs LY-2606368 15 mg/kg IV twice a week) was “more efficacious than the reference LY-2606368”. For the same molecule, the “% T/C value” (HT-29 tumor xenograft; twice a week plus CPT-11 (50 mg/kg, IV, once per week)) was −9%, the “% T/C value” (HT-29 tumor xenograft; alone, twice a week) was 26% and the “effect on anti-tumor growth activity of CPT11” value (HT-29 tumor xenograft; combination with CPT11) was “enhanced anti-tumor growth activity of CPT11”. For the same molecule, the “inhibition of ChK1 phosphorylation (FIG. 2)” value [1] was “potently inhibited ChK1 phosphorylation”.
